The source of these data is patent publication US20060258738A1, “Use of dronabinol for treatment of side effects of Hepatitis C therapy” (priority 2005, published 2006).

In series [1] the test system is GI side effects (nausea/vomiting, anorexia and weight loss) related to anti-HCV therapy. The experiment in a line: Retrospective chart review: open label dronabinol for GI side effects of anti-HCV therapy, positive response. Type of series: in vivo, human. To be noted: whole cohort. How it is done:
A retrospective chart review of 22 patients with chronic HCV receiving IFN (Pegylated n=18, standard n=4) and RBV was performed. All were receiving open label dronabinol for specific GI side effects (nausea/vomiting, anorexia and weight loss) related to anti-HCV therapy. Over half the cohort (13/22) were co-infected with HIV. Demographic, clinical, and virological data was recorded at baseline (pre dronabinol therapy); Body Mass Index (BMI) was calculated at baseline, and at the end of dronabinol therapy.
A positive response to dronabinol was defined as follows: […]
Subjective: Documentation in chart of improvement in symptoms of nausea, vomiting or anorexia, as reported by patient.
Objective: No change or increase in BMI at end of dronabinol treatment compared to baseline.

The nature of series [2]: Retrospective chart review: adverse events, tolerability and discontinuation of dronabinol.

SMILES strings stand for the structures.

On to `CCCCCc1cc(O)c2c(c1)OC(C)(C)[C@@H]1CCC(C)=C[C@@H]21` [dronabinol, delta-9-tetrahydrocannabinol], for which the “Positive outcome, both for improvement in symptoms and stabilization or increase in BMI” value in series [1] is listed as “over 40%”. The Tolerability entry in series [2] (the 4 members of the cohort aged 60 or greater) is reported as “well tolerated”; in series [2] (whole cohort, including those with HIV/HCV) it was “well-tolerated by the majority of the cohort”.
